Earlier results as cited in patent publication US20040175402A1, “Formulation” (priority 2001, published 2004).

Experiments:
[1] = test system: human breast cancer cells; conditions: human breast cancer cells in vitro

C[C@]12CC[C@@H]3c4ccc(O)cc4C[C@@H](CCCCCCCCC[S+]([O-])CCCC(F)(F)C(F)(F)F)[C@H]3[C@@H]1CC[C@@H]2O (stereo partly drawn) [Fulvestrant, 7α-[9-(4,4,5,5,5-Pentafluoropentylsulphinyl)nonyl]oestra-1,3-5(10)-triene-3,17β-diol]
block of growth stimulatory action of oestradiol [1]: completely blocks the growth stimulatory action of oestradiol | block of uterotrophic action of oestradiol (rats): blocks completely the uterotrophic action of oestradiol | block of uterotrophic action of oestradiol (mice): blocks completely the uterotrophic action of oestradiol | block of uterotrophic action of oestradiol (monkeys): blocks completely the uterotrophic action of oestradiol
